Measured values: US20260207573A1, “EFFECT OF RIVOCERANIB ON CYTOCHROME P450 ENZYME SUBSTRATES” (ELEVAR THERAPEUTICS, INC., priority 2022, published 2026)
Entries after “also recorded” stand apart in the source; their conditions may differ.

How the values were obtained:
CYP1A2 [1] = target: T1, CYP1A2 (Homo sapiens, UniProt P05177); conditions: in vivo, po
T1 sequence (P05177 1-516): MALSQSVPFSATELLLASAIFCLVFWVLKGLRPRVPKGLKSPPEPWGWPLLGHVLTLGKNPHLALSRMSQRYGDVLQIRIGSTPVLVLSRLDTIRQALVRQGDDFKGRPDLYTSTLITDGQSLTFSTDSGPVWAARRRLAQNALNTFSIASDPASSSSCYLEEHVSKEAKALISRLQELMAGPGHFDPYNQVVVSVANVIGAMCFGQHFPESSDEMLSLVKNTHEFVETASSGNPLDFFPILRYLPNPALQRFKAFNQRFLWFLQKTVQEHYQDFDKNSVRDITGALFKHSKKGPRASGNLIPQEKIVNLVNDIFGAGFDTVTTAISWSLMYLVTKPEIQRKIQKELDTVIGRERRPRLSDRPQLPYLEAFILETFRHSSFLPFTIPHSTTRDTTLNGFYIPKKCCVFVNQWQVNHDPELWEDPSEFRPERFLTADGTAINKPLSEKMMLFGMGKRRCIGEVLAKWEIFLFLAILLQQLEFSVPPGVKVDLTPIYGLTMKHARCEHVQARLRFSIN

CYP1A2 [2] = target: T1, CYP1A2; test: Example 2 phase 1 drug-drug interaction study, rivoceranib 700 mg QD + 5+1 cocktail: caffeine probe; conditions: for AUC(0-t) / AUC(0-inf) / Cmax: human, in vivo
Procedure: (§1) This example describes a pharmacokinetic interaction study in healthy human volunteers dosed with 700 mg rivoceranib and a mixture of cytochrome P450 enzyme (CYP1A2, CYP2C9, CYP2C19, CYP2D6, and CYP3A) substrates.
(§2) The primary objective of the study was to evaluate the effect of rivoceranib 700 mg once daily (QD) on the pharmacokinetics (PK) of various CYP substrates to determine drug-drug interactions of rivoceranib.
(§3) This was an open-label, 2-treatment, fixed-sequence drug-drug interaction phase 1 study designed to evaluated the impact of multiple oral doses of 700 mg rivoceranib on the single-dose PK of CYP enzyme substrates administered in a 5+1 Cooperstown probe cocktail (caffeine [CYP1A2], S- and R-warfarin [CYP2C9]+vitamin K, omeprazole [CYP2C19], dextromethorphan [CYP2D6], and midazolam [CYP3A]) in healthy volunteers (N=32). On day 1, volunteers received a single dose of the 5+1 cocktail comprising 200 mg caffeine, 10 mg S- and R-warfarin with 10 mg vitamin K, 40 mg omeprazole, 30 mg dextromethorphan, and 2 mg midazolam. Blood samples were collected pre-dose on day 1 and up to 120 hours post-dose for PK analyses of the substrates in the 5+1 cocktail. On days 6 to 15, volunteers received 700 mg rivoceranib once daily for 10 consecutive days with a single dose of the 5+1 cocktail administered on day 11. Blood samples were collected pre-dose on day 11 and up to 120 hours post cocktail dosing (day 16) for PK analyses. Each dosing was under fasted conditions. There was a washout period of 5 days between day 1 dosing and the first rivoceranib dose on day 6; the 2 cocktail dosings were spaced by 10 days.

CYP2C9 [3] = target: T2, CYP2C9 (Homo sapiens, UniProt P11712); test: Example 1 pharmacokinetic interaction study, rivoceranib 200 mg + Cooperstown 5+1 cocktail: warfarin probe
T2 sequence (P11712 whole entry): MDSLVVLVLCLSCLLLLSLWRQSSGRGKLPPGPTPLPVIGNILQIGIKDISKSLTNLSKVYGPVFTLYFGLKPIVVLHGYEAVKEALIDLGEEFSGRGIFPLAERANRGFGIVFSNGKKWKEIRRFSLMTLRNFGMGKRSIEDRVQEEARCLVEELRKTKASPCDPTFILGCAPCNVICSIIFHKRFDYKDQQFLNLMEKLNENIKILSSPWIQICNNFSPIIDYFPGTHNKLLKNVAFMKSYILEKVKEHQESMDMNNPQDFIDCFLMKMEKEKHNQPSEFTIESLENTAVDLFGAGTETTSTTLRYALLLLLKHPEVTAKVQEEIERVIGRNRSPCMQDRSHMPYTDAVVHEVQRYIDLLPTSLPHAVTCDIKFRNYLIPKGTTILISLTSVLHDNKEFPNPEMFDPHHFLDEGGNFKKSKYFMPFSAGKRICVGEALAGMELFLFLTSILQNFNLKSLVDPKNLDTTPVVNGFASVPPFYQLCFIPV

CYP2C9 [4] = target: T2, CYP2C9; test: Example 2 phase 1 drug-drug interaction study, rivoceranib 700 mg QD + 5+1 cocktail: S- and R-warfarin probe; design: AUC(0-∞), Mean (CV %), 5 + 1 cocktail alone / AUC(0-∞), Geometric LSM, 5 + 1 cocktail alone / AUC(0-∞), Mean (CV %), Rivoceranib plus 5 + 1 cocktail / AUC(0-∞), Geometric LSM, Rivoceranib plus 5 + 1 cocktail / AUC(0-t), Mean (CV %), 5 + 1 cocktail alone / AUC(0-t), Geometric LSM, 5 + 1 cocktail alone / AUC(0-t), Mean (CV %), Rivoceranib plus 5 + 1 cocktail / AUC(0-t), Geometric LSM, Rivoceranib plus 5 + 1 cocktail: unit not given beside the values; conditions: for AUC(0-t), Geometric LSM, Rivoceranib plus 5 + 1 cocktail / AUC(0-t), Mean (CV %), Rivoceranib plus 5 + 1 cocktail / AUC(0-∞), Geometric LSM, Rivoceranib plus 5 + 1 cocktail / AUC(0-∞), Mean (CV %), Rivoceranib plus 5 + 1 cocktail / Cmax, Geometric LSM, Rivoceranib plus 5 + 1 cocktail / Cmax, Mean (CV %), Rivoceranib plus 5 + 1 cocktail / AUC(0-t), Geometric LSM, 5 + 1 cocktail alone / AUC(0-t), Mean (CV %), 5 + 1 cocktail alone / AUC(0-∞), Geometric LSM, 5 + 1 cocktail alone / AUC(0-∞), Mean (CV %), 5 + 1 cocktail alone / Cmax, Geometric LSM, 5 + 1 cocktail alone / Cmax, Mean (CV %), 5 + 1 cocktail alone: healthy volunteers; for AUC(0-t), Geometric LSM, Rivoceranib plus 5 + 1 cocktail / AUC(0-t), Mean (CV %), Rivoceranib plus 5 + 1 cocktail / AUC(0-∞), Geometric LSM, Rivoceranib plus 5 + 1 cocktail / AUC(0-∞), Mean (CV %), Rivoceranib plus 5 + 1 cocktail / Cmax, Geometric LSM, Rivoceranib plus 5 + 1 cocktail / Cmax, Mean (CV %), Rivoceranib plus 5 + 1 cocktail: 5+1 cocktail day 11 + rivoceranib 700 mg QD days 6-15; for AUC(0-t), Geometric LSM, 5 + 1 cocktail alone / AUC(0-t), Mean (CV %), 5 + 1 cocktail alone / AUC(0-∞), Geometric LSM, 5 + 1 cocktail alone / AUC(0-∞), Mean (CV %), 5 + 1 cocktail alone / Cmax, Geometric LSM, 5 + 1 cocktail alone / Cmax, Mean (CV %), 5 + 1 cocktail alone: single oral 5+1 cocktail dose day 1, fasted; for increase in AUC0-inf when co-administered with rivoceranib / increase in Cmax when co-administered with rivoceranib: rivoceranib 700 mg
Procedure: as §1, §2, §3

[5] = human, in vivo
Procedure: as §3

CYP2C19 [6] = target: T3, CYP2C19 (Homo sapiens, UniProt P33261); conditions: in vivo, po
T3 sequence (P33261 whole entry): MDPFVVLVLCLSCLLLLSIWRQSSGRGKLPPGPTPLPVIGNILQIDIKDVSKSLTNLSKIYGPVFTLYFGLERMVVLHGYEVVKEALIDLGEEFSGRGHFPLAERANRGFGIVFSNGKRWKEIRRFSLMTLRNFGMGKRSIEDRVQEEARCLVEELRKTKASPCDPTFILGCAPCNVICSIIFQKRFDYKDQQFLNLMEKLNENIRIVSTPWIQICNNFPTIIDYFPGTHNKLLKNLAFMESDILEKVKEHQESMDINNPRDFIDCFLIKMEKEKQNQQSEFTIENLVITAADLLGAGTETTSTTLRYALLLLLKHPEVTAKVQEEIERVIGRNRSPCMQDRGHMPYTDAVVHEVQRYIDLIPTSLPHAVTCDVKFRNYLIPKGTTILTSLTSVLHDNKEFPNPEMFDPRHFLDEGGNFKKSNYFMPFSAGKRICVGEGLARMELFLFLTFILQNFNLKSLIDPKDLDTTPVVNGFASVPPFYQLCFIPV

CYP2C19 [7] = target: T3, CYP2C19; test: Example 2 phase 1 drug-drug interaction study, rivoceranib 700 mg QD + 5+1 cocktail: omeprazole probe
Procedure: as §1, §2, §3

[8] = oral, probe caffeine, Geometric LSM, Rivoceranib plus 5 + 1 cocktail, healthy volunteers, 5+1 cocktail day 11 + rivoceranib 700 mg QD days 6-15
[9] = oral, probe caffeine, Mean (CV %), Rivoceranib plus 5 + 1 cocktail, healthy volunteers, 5+1 cocktail day 11 + rivoceranib 700 mg QD days 6-15
[10] = po, probe caffeine, Geometric LSM, 5 + 1 cocktail alone, healthy volunteers, single oral 5+1 cocktail dose day 1, fasted
[11] = po, probe caffeine, Mean (CV %), 5 + 1 cocktail alone, healthy volunteers, single oral 5+1 cocktail dose day 1, fasted
[12] = rivoceranib 700 mg QD, 100*LSM Rivoceranib Plus 5+1 Cocktail/LSM 5+1 Cocktail Alone
[13] = rivoceranib 200 mg once daily, oral substrate
[14] = po, Geometric LSM, 5 + 1 cocktail alone
[15] = po, Mean (CV %), 5 + 1 cocktail alone

## Cn1c(=O)c2c(ncn2C)n(C)c1=O [caffeine]
CYP1A2 [1]
  AUC(0-t), Geometric LS Mean, Cooperstown Cocktail Alone: 10.6274
  AUC(0-∞), Geometric LS Mean, Cooperstown Cocktail Alone: 10.6463
  Cmax, Geometric LS Mean, Cooperstown Cocktail Alone: 8.4984
CYP1A2 [2]; [8]
  AUC(0-t): 43200 ng·h/mL
  AUC(0-inf): 45400 ng·h/mL
  Cmax: 5210 ng/mL
CYP1A2 [2]; [9]
  AUC(0-t): 44500 ng·h/mL
  AUC(0-inf): 47600 ng·h/mL
  Cmax: 5330 ng/mL
CYP1A2 [2]; po, 200 mg, probe caffeine, Geometric LSM, 5 + 1 cocktail alone, healthy volunteers, single oral 5+1 cocktail dose day 1, fasted
  AUC(0-t): 52600 ng·h/mL
CYP1A2 [2]; po, 200 mg, probe caffeine, Mean (CV %), 5 + 1 cocktail alone, healthy volunteers, single oral 5+1 cocktail dose day 1, fasted
  AUC(0-t): 52600 ng·h/mL
CYP1A2 [2]; [10]
  AUC(0-inf): 53400 ng·h/mL
  Cmax: 5190 ng/mL
CYP1A2 [2]; [11]
  AUC(0-inf): 53400 ng·h/mL
  Cmax: 5190 ng/mL
CYP1A2 [2]; rivoceranib 700 mg QD
  change of Cmax with rivoceranib: relatively unchanged; also recorded: did not change
  reduction of AUC0-inf by rivoceranib: 15%
CYP1A2 [2]; [12]
  AUC(0-∞), Geometrical mean Ratio, % (90% CI): 84.87%
  Cmax, Geometrical mean Ratio, % (90% CI): 100.41%

## CC(=O)C[C@H](c1ccccc1)c1c(O)c2ccccc2oc1=O [R-warfarin]
CYP2C9 [3]; rivoceranib 200 mg daily, plasma, FIG. 4 and Table 5
  levels on coadministration with rivoceranib: relatively unaffected
CYP2C9 [4]
  AUC(0-t), Geometric LSM, Rivoceranib plus 5 + 1 cocktail: 36,090
  AUC(0-t), Mean (CV %), Rivoceranib plus 5 + 1 cocktail: 36,660
  AUC(0-∞), Geometric LSM, Rivoceranib plus 5 + 1 cocktail: 48,560
  AUC(0-∞), Mean (CV %), Rivoceranib plus 5 + 1 cocktail: 49,220
  Cmax, Geometric LSM, Rivoceranib plus 5 + 1 cocktail: 804.9 ng/mL
  Cmax, Mean (CV %), Rivoceranib plus 5 + 1 cocktail: 816.0 ng/mL
  AUC(0-t), Geometric LSM, 5 + 1 cocktail alone: 29,860
  AUC(0-t), Mean (CV %), 5 + 1 cocktail alone: 29,860
  AUC(0-∞), Geometric LSM, 5 + 1 cocktail alone: 36,750
  AUC(0-∞), Mean (CV %), 5 + 1 cocktail alone: 36,750
  Cmax, Geometric LSM, 5 + 1 cocktail alone: 701.2 ng/mL
  Cmax, Mean (CV %), 5 + 1 cocktail alone: 701.2 ng/mL
  increase in AUC0-inf when co-administered with rivoceranib: 32%
  increase in Cmax when co-administered with rivoceranib: 15%

## N#CC1(c2ccc(NC(=O)c3cccnc3NCc3ccncc3)cc2)CCCC1 [rivoceranib, N-[4-(1-cyanocyclopentyl)phenyl]-2-{[(pyridin-4-yl)methyl]amino}pyridine-3-carboxamide]
[5]
  volunteers who had a TEAE (number): 16
  volunteers who had a TEAE (percent): 53.30%

## CC(=O)C[C@@H](c1ccccc1)c1c(O)c2ccccc2oc1=O [S-warfarin]
CYP2C9 [3]; [13]
  increase in AUC0-∞ with coadministration with rivoceranib: 28%
  increase in Cmax with coadministration with rivoceranib: 5%
CYP2C9 [4]
  AUC(0-t), Geometric LSM, Rivoceranib plus 5 + 1 cocktail: 28,490
  AUC(0-t), Mean (CV %), Rivoceranib plus 5 + 1 cocktail: 28,920
  AUC(0-∞), Geometric LSM, Rivoceranib plus 5 + 1 cocktail: 34,670
  AUC(0-∞), Mean (CV %), Rivoceranib plus 5 + 1 cocktail: 34,780
  Cmax, Geometric LSM, Rivoceranib plus 5 + 1 cocktail: 832.5 ng/mL
  Cmax, Mean (CV %), Rivoceranib plus 5 + 1 cocktail: 840.2 ng/mL
  AUC(0-t), Geometric LSM, 5 + 1 cocktail alone: 18.880
  AUC(0-t), Mean (CV %), 5 + 1 cocktail alone: 18,880
  AUC(0-∞), Geometric LSM, 5 + 1 cocktail alone: 20,640
  AUC(0-∞), Mean (CV %), 5 + 1 cocktail alone: 20,640
  Cmax, Geometric LSM, 5 + 1 cocktail alone: 701.1 ng/mL
  Cmax, Mean (CV %), 5 + 1 cocktail alone: 701.1 ng/mL
  increase in AUC0-inf when co-administered with rivoceranib: 68%
  increase in Cmax when co-administered with rivoceranib: 19%

## Cn1c(=O)[nH]c2ncn(C)c2c1=O [paraxanthine]
CYP1A2 [1]
  AUC(0-t), Geometric LS Mean, Cooperstown Cocktail Alone: 10.0780
  AUC(0-∞), Geometric LS Mean, Cooperstown Cocktail Alone: 10.1025
  Cmax, Geometric LS Mean, Cooperstown Cocktail Alone: 7.1157
CYP1A2 [2]; [14]
  AUC(0-t): 31000 ng·h/mL
  AUC(0-inf): 31700 ng·h/mL
  Cmax: 1440 ng/mL
CYP1A2 [2]; [15]
  AUC(0-t): 31000 ng·h/mL
  AUC(0-inf): 28700 ng·h/mL
  Cmax: 1440 ng/mL

## COc1ccc2[nH]c([S+]([O-])Cc3ncc(C)c(OC)c3C)nc2c1 (stereo not drawn) [omeprazole]
CYP2C19 [6]
  AUC(0-t), Geometric LS Mean, Cooperstown Cocktail Alone: 7.3711
  AUC(0-∞), Geometric LS Mean, Cooperstown Cocktail Alone: 7.5365
  Cmax, Geometric LS Mean, Cooperstown Cocktail Alone: 6.3720
CYP2C19 [7]; rivoceranib 700 mg
  increase in AUC0-inf with rivoceranib: 3.3 fold
  increase in Cmax with rivoceranib: 2 fold
CYP2C19 [7]; [12]
  AUC(0-t), Geometrical mean Ratio, % (90% CI): 259.87%
  AUC(0-∞), Geometrical mean Ratio, % (90% CI): 272.50%
  Cmax, Geometrical mean Ratio, % (90% CI): 198.80%
